Drawing on patent publication US20200095223A1, “NOVEL TRIAZOLETHIONE DERIVATIVES” (priority 2017, published 2020), this text covers chromatographic logP for five compounds.

Usually chromatographic logP stands for lipophilicity estimated from chromatographic retention. Higher therefore signals higher lipophilicity.

The nature of the data set: Log P by HPLC on reversed phase columns (EEC directive 79/831 Annex V.A8). Format: physicochemical. Conditions: reversed phase HPLC column; method [a]: LC-UV, acidic range, 0.1% formic acid in water and acetonitrile as eluent. The protocol: Log P values: […] If more than one Log P value is available within the same method, all the values are given and separated by “+”. Calibration was done with straight-chain alkan2-ones (with 3 to 16 carbon atoms) with known Log P values (measurement of Log P values using retention times with linear interpolation between successive alkanones). Lambda-max-values were determined using UV-spectra from 200 nm to 400 nm and the peak values of the chromatographic signals.
With `CC(O)(Cn1nc[nH]c1=S)c1ccc(Oc2ccc(Br)cc2)nc1C(F)(F)F` (centres unmarked) [I-S-01, 2-[2-[6-(4-bromophenoxy)-2-(trifluoromethyl)-3-pyridyl]-2-hydroxy-propyl]-4H-1,2,4-triazole-3-thione], the chromatographic logP was 3.21.

Regarding `CC(O)(Cn1nc[nH]c1=S)c1ccc(Oc2ccccc2)nc1C(F)(F)F` (centres unmarked) [I-S-02, 2-[2-hydroxy-2-[6-phenoxy-2-(trifluoromethyl)-3-pyridyl]propyl]-4H-1,2,4-triazole-3-thione], the chromatographic logP is 2.66.

Consider `CC(O)(Cn1nc[nH]c1=S)c1ccc(Oc2ccc(Cl)cc2)nc1C(F)(F)F` (centres unmarked) [I-S-03, 2-[2-[6-(4-chlorophenoxy)-2-(trifluoromethyl)-3-pyridyl]-2-hydroxy-propyl]-4H-1,2,4-triazole-3-thione], for which the chromatographic logP came to 3.11.

`OC(Cn1nc[nH]c1=S)(c1ccc(Oc2ccc(Br)cc2)nc1C(F)(F)F)C1CC1` (centres unmarked) [I-S-04, 2-[2-[6-(4-bromophenoxy)-2-(trifluoromethyl)-3-pyridyl]-2-cyclopropyl-2-hydroxy-ethyl]-4H-1,2,4-triazole-3-thione]: the chromatographic logP is 3.87.

Consider `OC(Cn1nc[nH]c1=S)(c1ccc(Oc2ccccc2)nc1C(F)(F)F)C1CC1` (centres unmarked) [I-S-06, 2-[2-cyclopropyl-2-hydroxy-2-[6-phenoxy-2-(trifluoromethyl)-3-pyridyl]ethyl]-4H-1,2,4-triazole-3-thione], for which the chromatographic logP stood at 3.27.
